Experiment [1] has as its system Aspergillus brasiliensis. Conditions: 1000 ppm, pH 4.0. The text has this: (§1) To determine ascertain bactericidal and fungicidal qualities of the present food preservative solution, certain embodiments containing a combination of phenylacrylic acid, sorbic acid, a potentiation agent and a stabilization agent were subjected to a modified version of the United States Pharmocopedia (USP) antimicrobial efficacy test found in chapter 51 of the USP 40 manual. All embodiments were between pH 3.95-4.05.
(§2) To each of the embodiments, 1×10^6 cells from the following spoilage organisms; Escheria coli, Listeria monocytogenes, Salmonella entericia, Aspergillus flavus, Aspergillus brasiliensis, and Zygosaccharomyces bailii. The microbials were homogeneously dispersed in the various embodiments. Small aliquots are taken from the inoculated samples at the appropriate time point is serial diluted and plated. The plates are incubated, and growth is then enumerated. The counts are multiplied by the appropriate dilution factor to give a viable cell count at that time point.

Experiment [2] deals with Aspergillus flavus. As to conditions: 1000 ppm, pH 4.0.
Text: as §1, §2

Experiment [3] deals with Escheria coli. As to conditions: 1000 ppm, pH 4.0.
Text: as §1, §2

Experiment [4] deals with Listeria monocytogenes. As to conditions: 1000 ppm, pH 4.0.
Text: as §1, §2

Experiment [5] relates to Salmonella entericia. As to conditions: 1000 ppm, pH 4.0.
Text: as §1, §2

The subject of experiment [6] is Zygosaccharomyces bailii. As to conditions: 1000 ppm, pH 4.0.
Text: as §1, §2

Experiment [7] relates to Saccharomyces cerevisiae, Candida parapsilosis, Zygosaccharomyces rouxii, and Zygosaccharomyces bailii. The experiment can be described thus: Experimental Test 3, summary statements over the yeast species. In kind it is cell-based. Conditions: Tables 12-15; pH 3.1-7.5. The protocol: The media was then sterilized by steam autoclaving the solution for 15 minutes at 121° C. and the media was placed into 3 96 cell plates and pH using either 0.1N HCl or 0.1N NaOH to pH values of 3.1, 5.6, 6.0, 6.5, 7.0, and 7.5.
Three exemplary embodiment solutions were added and serial diluted into a series of treatment wells and 0.5 McFarland Standard's worth of yeast cells were added to each well. The plates were incubated at 32° C. for 48 hours and then the OD was read at 600 nm. The percent inhibition was graphed as a percentage of the following formula indicated in Equation 1.

Like-named read-outs stand apart in the source and are kept apart here. Where only a bound is given, the exact number is not on record here.

As to `CC=CC=CC(=O)O` [Sorbic Acid, 2,4 hexadienoic acid], the Microbial plate count in experiment [1] (Test Day 0) was 630000 CFU/g; in experiment [1] (Test Day 0.5), 230000 CFU/g; in experiment [1] (Test Day 1), 520 CFU/g; in experiment [1] (Test Day 3) it was below 10 CFU/g; in experiment [1] (Test Day 7) it was below 10 CFU/g; in experiment [2] (Test Day 0) it was 510000 CFU/g. Besides, the Microbial plate count is recorded as 8500 CFU/g in experiment [2] (Test Day 0.5); below 10 CFU/g in experiment [2] (Test Day 1); below 10 CFU/g in experiment [2] (Test Day 3); below 10 CFU/g in experiment [2] (Test Day 7); 580000 CFU/g in experiment [3] (Test Day 0); below 10 CFU/g in experiment [3] (Test Day 0.5). Further, the Microbial plate count in experiment [3] (Test Day 1) was below 10 CFU/g; in experiment [3] (Test Day 3) it was below 10 CFU/g; in experiment [3] (Test Day 7), below 10 CFU/g; in experiment [4] (Test Day 0), 620000 CFU/g; in experiment [4] (Test Day 0.5), below 10 CFU/g; in experiment [4] (Test Day 1), below 10 CFU/g. For the same molecule, the Microbial plate count in experiment [4] (Test Day 3) is reported as below 10 CFU/g; in experiment [4] (Test Day 7), below 10 CFU/g; in experiment [5] (Test Day 0) it was 800000 CFU/g; in experiment [5] (Test Day 0.5) it was below 10 CFU/g; in experiment [5] (Test Day 1), below 10 CFU/g; in experiment [5] (Test Day 3), below 10 CFU/g. The Microbial plate count in experiment [5] (Test Day 7) was below 10 CFU/g; in experiment [6] (Test Day 0), 480000 CFU/g; in experiment [6] (Test Day 0.5), 130000 CFU/g; in experiment [6] (Test Day 1) it was 1600 CFU/g; in experiment [6] (Test Day 3), 120 CFU/g; in experiment [6] (Test Day 7), below 10 CFU/g.

Take `O=C(O)C(O)c1ccccc1` (stereo not shown) [mandelic acid]: the “increase of the efficacy of potassium sorbate by addition of mandelic acid” value in experiment [7] is reported as 2-10 ×.

The values are drawn from patent US20200029601A1, “PHENYLACRYLIC ACID SOLUTION FOR BROAD SPECTRUM ANTIMICROBIAL APPLICATIONS FOR FOODSTUFFS” (KLF LABS LLC, priority 2018, published 2020).
